# Results reported in patent US6838445B1, “Tumor antigen peptide originating in SART-1” (Kyogo Itoh, priority 1998, dated 2005).
# Where no end group is shown, it is not given here.
# Key:
# [1] = tested on: KE-4CTL reacting with HLA-A2402-expressing VA-13 cells; assay: IFN-γ production by KE-4CTL against peptide-pulsed HLA-A2402-expressing VA-13 cells (ELISA); format: cell-based, human; details: peptide 10 μM for 2 hours on HLA-A2402-expressing VA-13 cells, 18 hours culture with 2×10^4 KE-4CTLs
# Protocol: Concretely, when peripheral blood lymphocytes are isolated from HLA-A24 antigen-positive human and candidate peptides are added thereto to stimulate in vitro, it can be evaluated by determining whether or not CTLs that specifically recognize the candidate peptide-pulsed HLA-A24-positive cells are induced. Here, the presence or absence of the induction of the CTLs can be examined, for instance, by assaying an amount of various cytokines (for instance, IFN-γ) produced by CTLs in reaction with the antigen peptide presenting cells by means of enzyme-linked immunosorbent assay (ELISA) or the like. As the antigen peptide presenting cells (target cells) during the assay, there are included, for instance, esophageal cancer cell line KE-4 (FERM BP-5955). In addition, the induction can be examined by the method for assaying CTL toxicity on ^51Cr-labeled antigen peptide presenting cells (^51Cr-release assay, Int. J. Cancer, 58:317, 1994). Further, the induction can be examined by pulsing with candidate peptides to cells resulting from introduction of an expression plasmid into, for instance, COS-7 cells (ATCC No. CRL1651) and VA-13 cells (RIKEN CELL BANK), the expression plasmid for expressing HLA-A24 cDNA [Cancer Res., 55:4248-4252 (1995); Genbank Accession No. M64740]; reacting KE-4CTL (FERM BP-5954), or CTLs prepared in the manner described above, or the like with the resulting cells; and assaying an amount of various cytokines (for instance, IFN-γ) that are produced by CTLs.
# HLA-A2402 cDNA (listed in Genbank Accession No. M64740) was obtained from KE-4 in accordance with the description in the publication (Cancer Res., 55:4248, 1995), and a recombinant plasmid was prepared by incorporating the resulting product into an expression vector pCR3 (manufactured by INVITROGEN). This plasmid was transfected to 10^4 cells of VA-13 cells (available from RIKEN CELL BANK; Ann. Med Exp. Biol. Fenn., 44:242, 1966) by lipofectin method in accordance with the publication (J. Exp. Med., 187:277, 1998), to thereby express HLA-A2402. Each of the peptides “725-733,” “740-750,” “746-755,” “746-756” and “758-766*” among those listed in Example 1 was added at 10 μM in 2 hours, and thereafter the mixture was cultured for 18 hours together with 2×10^4 of KE-4CTLs. An amount of IFN-γ produced by KE-4CTLs in the culture supernatant was assayed by ELISA method. […] Thereafter, the resulting product was developed by using Peroxidase Developing Kit T (manufactured by Sumitomo Bakelite Company, Limited), and thereafter its absorbance (405 nm) was determined. The resulting value was quantified by comparing it with the value obtained from standard IFN-γ. […]
# [2] = tested on: HLA-A2402-positive KE-4 cells; assay: Induction of CTLs from peripheral blood lymphocytes by peptide; IFN-γ release against KE-4 target cells (ELISA); format: cell-based, human; details: for induction of antigen peptide-specific CTLs from peripheral blood lymphocytes: conclusion from Table 1; for reactivity of peptide-stimulated peripheral blood lymphocytes against KE-4 compared with negative control QG56: from Table 1; for IFN-γ (pg/ml) in Supernatant: peripheral blood lymphocytes (HLA-A24 homo healthy donors) stimulated three times with 10 μM peptide, 8×10^4 effectors, target cells KE-4 (1×10^4)
# Protocol: (§1) First, lymphocytes were isolated by Ficol method from peripheral blood of healthy donors whose HLA-A locus is A24 homo. The lymphocytes were aliquoted to a 24-well plate so as to be 2×10^6 cells/well, and cultured in a culture medium containing 45% RPMI 1640 medium, 45% AIM-V medium, 10% FCS and 100 U/ml IL-2. Each of the above-mentioned tumor antigen peptides was added to the culture medium so as to have a concentration of 10 μM, to stimulate the peripheral blood lymphocytes. One week later, the above-mentioned tumor antigen peptide was added thereto so as to have a concentration of 10 μM, together with about 2×10^5 of X-ray irradiated (50 Gy) peripheral blood lymphocytes, to carry out a second stimulation of the lymphocytes. After another week, a third stimulation was carried out by repeating the procedures in the same manner as above. After one week from the third stimulation, the cultured lymphocytes were collected. The amount of IFN-γ of the supernatant was assayed by ELISA, the supernatant being produced by reacting the above-mentioned lymphocytes (8×10^4) with HLA-A2402-positive KE-4 cells in which the tumor antigen protein was expressed and with HLA-A2402-negative QG56 cells in which the tumor antigen protein was expressed, respectively, as targeted cells (1×10^4).
# [3] = tested on: HLA-A2402-negative QG56 cells; assay: Induction of CTLs from peripheral blood lymphocytes by peptide; IFN-γ release against QG56 target cells (ELISA); format: cell-based; details: peripheral blood lymphocytes (HLA-A24 homo healthy donors) stimulated three times with 10 μM peptide, 8×10^4 effectors; target cells QG56 (1×10^4), negative control
# Protocol: as §1
Sequence,"activity as HLA-A24-restricted tumor antigen peptide (amount of IFN-γ produced by KE-4CTLs, FIG. 1) [1]",induction of antigen peptide-specific CTLs from peripheral blood lymphocytes [2],reactivity of peptide-stimulated peripheral blood lymphocytes against KE-4 compared with negative control QG56 [2],IFN-γ (pg/ml) in Supernatant [2] [pg/mL],IFN-γ (pg/ml) in Supernatant [3] [pg/mL]
KMKTERRMKKL [740-750],function as HLA-A24-restricted tumor antigen peptides,–,–,–,–
AFRQLSHRF [725-733],function as HLA-A24-restricted tumor antigen peptides,–,–,–,–
RMKKLDEEAL [746-755],function as HLA-A24-restricted tumor antigen peptides,antigen peptide-specific CTLs were induced,stronger reactivities against KE-4,595.5,281.4
RMKKLDEEALL [746-756],function as HLA-A24-restricted tumor antigen peptides,antigen peptide-specific CTLs were induced,stronger reactivities against KE-4,701.5,392.0
